Format in all cases: cell-based
For assay [1], the target named is T1, 17β-hydroxysteroid dehydrogenase type 3 (17β-HSD type 3) (Homo sapiens, UniProt P37058).
T1 construct: expressed in transfected cells; host or cells: MCF-7
T1 sequence (P37058 1-310): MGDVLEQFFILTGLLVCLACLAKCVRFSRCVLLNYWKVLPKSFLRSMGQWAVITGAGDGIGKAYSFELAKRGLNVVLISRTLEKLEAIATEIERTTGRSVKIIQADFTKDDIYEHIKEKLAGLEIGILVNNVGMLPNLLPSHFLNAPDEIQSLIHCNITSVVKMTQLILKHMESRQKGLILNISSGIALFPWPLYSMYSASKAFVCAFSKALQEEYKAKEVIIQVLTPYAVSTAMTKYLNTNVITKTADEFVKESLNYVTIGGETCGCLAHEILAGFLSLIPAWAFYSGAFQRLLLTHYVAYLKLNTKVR
Nature of the assay: Inhibition of 17β-HSD type 3 in MCF-7 cells stably expressing the isoenzyme (tritium labeled androstenedione conversion, HPLC). The note with it: MCF-7 cells expressing 17β-HSD type 3, 2 nM tritium labeled androstenedione; for inhibition at 1 µM / inhibition at 10 µM: MCF7; for inhibition at 1 µM: read-out: % Inhibition HSD3 1 μM; for inhibition at 10 µM: read-out: % Inhibition HSD3 10 μM. The method in brief: (§1)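 Percent inhibition derived by comparing substrate conversion with versus without compound, quantified by HPLC–radioflow detection after TCA stop. Cells were stably transfected MCF-7 expressing type 1, 2 or 3 enzyme, given 2 nM labeled estrone, estradiol or androstenedione respectively; compounds tested at two concentrations.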

Assay [2] has as its target T2, 17β-hydroxysteroid dehydrogenase type 1 (17β-HSD type 1) (Homo sapiens, UniProt P14061).
T2 construct: expressed in transfected cells; host or cells: MCF-7
T2 sequence (P14061 1-328): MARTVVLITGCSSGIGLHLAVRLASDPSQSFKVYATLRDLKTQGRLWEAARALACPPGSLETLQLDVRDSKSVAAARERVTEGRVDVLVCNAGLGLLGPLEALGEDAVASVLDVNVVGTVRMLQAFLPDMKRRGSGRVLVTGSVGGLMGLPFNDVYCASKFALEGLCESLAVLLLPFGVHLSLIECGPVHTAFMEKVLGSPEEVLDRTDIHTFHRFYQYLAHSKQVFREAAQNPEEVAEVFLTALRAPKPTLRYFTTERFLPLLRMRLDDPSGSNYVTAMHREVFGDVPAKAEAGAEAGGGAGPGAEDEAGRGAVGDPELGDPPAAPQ
Nature of the assay: Inhibition of 17β-HSD type 1 in MCF-7 cells stably expressing the isoenzyme (tritium labeled estrone conversion, HPLC). The settings on record: MCF-7 cells expressing 17β-HSD type 1, 2 nM tritium labeled estrone; for inhibition at 1 µM / inhibition at 10 µM: MCF7; for inhibition at 1 µM: read-out: % Inhibition HSD1 1 μM; for inhibition at 10 µM: read-out: % Inhibition HSD1 10 μM. The method, boiled down:
as §1

The target of assay [3] is T3, 17β-hydroxysteroid dehydrogenase type 2 (17β-HSD type 2) (Homo sapiens, UniProt P37059).
T3 construct: expressed in transfected cells; host or cells: MCF-7
T3 sequence (P37059 1-387): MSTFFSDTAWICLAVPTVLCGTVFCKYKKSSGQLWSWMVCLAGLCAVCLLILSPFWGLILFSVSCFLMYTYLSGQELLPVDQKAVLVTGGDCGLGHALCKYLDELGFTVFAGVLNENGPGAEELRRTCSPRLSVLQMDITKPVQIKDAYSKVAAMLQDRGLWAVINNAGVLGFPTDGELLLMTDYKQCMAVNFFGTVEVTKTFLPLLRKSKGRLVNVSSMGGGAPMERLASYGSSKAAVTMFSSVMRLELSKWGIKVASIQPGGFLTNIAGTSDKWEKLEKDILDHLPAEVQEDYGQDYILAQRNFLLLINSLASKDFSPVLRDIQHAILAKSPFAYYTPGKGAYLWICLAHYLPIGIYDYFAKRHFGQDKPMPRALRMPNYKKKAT
Kind of assay: Inhibition of 17β-HSD type 2 in MCF-7 cells stably expressing the isoenzyme (tritium labeled estradiol conversion, HPLC). The settings on record: MCF-7 cells expressing 17β-HSD type 2, 2 nM tritium labeled estradiol; for inhibition at 1 µM / inhibition at 10 µM: MCF7; for inhibition at 1 µM: read-out: % Inhibition HSD2 1 μM; for inhibition at 10 µM: read-out: % Inhibition HSD2 10 μM. The method, boiled down: as §1

The term inhibition denotes the relative decrease from the control value, in per cent. In the case of `CCCc1nc2sc3c(c2c(=O)n1Cc1cc(Br)ccc1OC)CCC(Br)(Br)C3=O` [No. 97, 7,7-Dibromo-3-(5-bromo-2-methoxybenzyl)-2-propyl-6,7-dihydro-3H,5H-benzo[4,5]thieno[2,3-d]pyrimidine-4,8-dione], the inhibition at 1 µM in assay [1] (1 μM test compound) is -5.9%; in assay [2] (1 μM test compound), 18.1%; in assay [3] (1 μM test compound), 25.2%. The inhibition at 10 µM in assay [1] (10 μM test compound) was found to be 11.5%; in assay [2] (10 μM test compound), 29.4%; in assay [3] (10 μM test compound) it was 44.6%.

Regarding `COCc1nc2sc3c(Cl)c(C=O)c(C(=O)O)c(O)c3c2c(=O)n1Cc1ccccc1` [No. 35, 3-Benzyl-8-chloro-7-formyl-5-hydroxyl-2-methoxymethyl-4-oxo-benzo[4,5]thieno[2,3-d]pyrimidine-6-carboxylic acid], the inhibition at 1 µM in assay [1] (1 μM test compound) is 14.7%; in assay [2] (1 μM test compound), 8.8%; in assay [3] (1 μM test compound), -6.8%. The values for the inhibition at 10 µM in assay [1] (10 μM test compound), in assay [2] (10 μM test compound) and in assay [3] (10 μM test compound) were 82.3%, 28.6% and 28.7%, respectively.

Consider `COc1cc(-c2nc3sc4c(c3c(=O)n2Cc2ccccc2)CCC(Cl)C4=O)c(Cl)c(OC)c1OC` (stereo not drawn) [No. 123, 3-Benzyl-7-chloro-2-(2-chloro-3,4,5-trimethoxyphenyl)-6,7-dihydro-3H,5H-benzo[4,5]thieno[2,3-d]pyrimidine-4,8-dione], for which the results for the inhibition at 1 µM in assay [1] (1 μM test compound), in assay [2] (1 μM test compound) and in assay [3] (1 μM test compound) were 1.3%, 19.4% and 24.6%, respectively. Further, the inhibition at 10 µM came out at 29.1% in assay [1] (10 μM test compound), 62.9% in assay [2] (10 μM test compound) and 40.2% in assay [3] (10 μM test compound).

On to `O=C1c2sc3nc(-c4ccc(Br)s4)n(Cc4ccccc4)c(=O)c3c2CCC1Br` (stereo not drawn) [No. 65, 3-Benzyl-7-bromo-2-(5-bromothiophen-2-yl)-6,7-dihydro-3H,5H-benzo[4,5]thieno[2,3-d]pyrimidine-4,8-dione], for which the inhibition at 1 µM in assay [1] (1 μM test compound) was determined as 5%; in assay [2] (1 μM test compound) it was 1.2%; in assay [3] (1 μM test compound), 19.2%. Besides, the inhibition at 10 µM in assay [1] (10 μM test compound) was 38%; in assay [2] (10 μM test compound), 7.8%; in assay [3] (10 μM test compound) it was 34.6%.

Consider `COc1cc(-c2nc3sc4c(c3c(=O)n2Cc2ccccc2)CC(C)C(Br)C4=O)c(Br)c(OC)c1OC` (stereo not drawn) [No. 689, 3-Benzyl-7-bromo-6-methyl-2-(2-bromo-3,4,5-trimethoxyphenyl)-6,7-dihydro-3H-benzo[4,5]thieno[2,3-d]pyrimidin-4,8-dione], for which the inhibition at 1 µM was -2.4% in assay [1] (1 μM test compound), 7.7% in assay [2] (1 μM test compound) and -3% in assay [3] (1 μM test compound). Moreover, the inhibition at 10 µM was 17.4% in assay [1] (10 μM test compound), 5.7% in assay [2] (10 μM test compound) and 5.7% in assay [3] (10 μM test compound).

Turning to `O=C(OCCn1c(-c2cccs2)nc2sc3c(O)cccc3c2c1=O)c1cccs1` [No. 73, Thiophene-2-carboxylic acid 2-(8-hydroxy-4-oxo-2-thiohen-2-yl-4H-benzo[4,5]thieno[2,3-d]pyrimidin-3-yl)-ethyl ester], the inhibition at 1 µM in assay [1] (1 μM test compound) turned out to be 37.9%; in assay [2] (1 μM test compound), 26.8%; in assay [3] (1 μM test compound), 58.3%. Further, the inhibition at 10 µM is 82.6% in assay [1] (10 μM test compound), 32.8% in assay [2] (10 μM test compound) and 90.5% in assay [3] (10 μM test compound).

Consider `O=c1c2c(nc(Cc3ccccc3)n1Cc1ccccc1)sc1c(O)cccc12` [No. 660], for which the “% Inhibition HSD3 1 μM” value in assay [1] (1 μM test compound) is recorded as 16.6%. The “% Inhibition HSD3 10 μM” value in assay [1] (10 μM test compound) was 19.9%. The “% Inhibition HSD1 1 μM” value in assay [2] (1 μM test compound) is reported as 21.7%. Further, in assay [2] (10 μM test compound), the “% Inhibition HSD1 10 μM” value is on record as 37.1%. Also, the “% Inhibition HSD2 1 μM” value in assay [3] (1 μM test compound) is 19.8%. Further, the “% Inhibition HSD2 10 μM” value in assay [3] (10 μM test compound) was found to be 48.9%.

As to `COc1cc(-c2nc3sc4c(OC)cccc4c3c(=O)n2Cc2ccccc2)c(Br)c(OC)c1OC` [No. 91, 3-Benzyl-8-methoxy-2-(2-bromo-3,4,5-trimethoxyphenyl)-3H-benzo[4,5]thieno[2,3-d]pyrimidin-4-one], the inhibition at 1 µM in assay [1] (1 μM test compound) came out at 3.7%; in assay [2] (1 μM test compound) it was 21.5%; in assay [3] (1 μM test compound) it was 28.2%. In addition, the inhibition at 10 µM in assay [1] (10 μM test compound) amounted to 18.1%; in assay [2] (10 μM test compound) it was 26.1%; in assay [3] (10 μM test compound), 33.7%.

For the compound `CCC(C)Cn1c(-c2cc(OC)c(OC)c(OC)c2)nc2sc3c(O)cccc3c2c1=O` (stereo not drawn) [No. 129, 8-Hydroxy-3-(2-methylbutyl)-2-(3,4,5-trimethoxyphenyl)-3H-benzo[4,5]thieno[2,3-d]pyrimidin-4-one], the values for the inhibition at 1 µM in assay [1] (1 μM test compound), in assay [2] (1 μM test compound) and in assay [3] (1 μM test compound) were 34.7%, 46.8% and 23.9%, respectively. In addition, the inhibition at 10 µM in assay [1] (10 μM test compound) came out at 78.6%; in assay [2] (10 μM test compound), 85.3%; in assay [3] (10 μM test compound), 53.1%.

For `COc1ccc(-c2nc3sc4c(c3c(=O)n2Cc2ccccc2)CCC(C=O)=C4Cl)cc1` [No. 14], the figures for the inhibition at 1 µM in assay [1] (1 μM test compound), in assay [2] (1 μM test compound) and in assay [3] (1 μM test compound) were 22.7%, 8.6% and 0.5%, respectively. In addition, the inhibition at 10 µM was determined as 80.8% in assay [1] (10 μM test compound), 29.7% in assay [2] (10 μM test compound) and 18.8% in assay [3] (10 μM test compound).

For the compound `CC(=O)OCc1nc2sc3c(c2c(=O)n1Cc1ccccc1)CCCC3=O` [No. 30, Acetic acid 3-benzyl-4,8-dioxo-3,4,5,6,7,8-hexahydro-benzo[4,5]thieno[2,3-d]pyrimidin-2-ylmethyl ester], the inhibition at 1 µM in assay [1] (1 μM test compound) was -1.2%; in assay [2] (1 μM test compound), 25.4%; in assay [3] (1 μM test compound), 20.2%. For the same compound, the inhibition at 10 µM in assay [1] (10 μM test compound) was 16.3%; in assay [2] (10 μM test compound) it was 39.7%; in assay [3] (10 μM test compound) it was 19.1%.

On to `CCCc1nc2sc3c(c2c(=O)n1Cc1ccco1)CCCC3` [No. 101, 3-(Furan-2-ylmethyl)-2-propyl-5,6,7,8-tetrahydro-3H-benzo[4,5]thieno[2,3-d]pyrimidin-4-one], for which the inhibition at 1 µM in assay [1] (1 μM test compound) came to 5.7%; in assay [2] (1 μM test compound), 14.1%; in assay [3] (1 μM test compound), 18%. Also, the inhibition at 10 µM in assay [1] (10 μM test compound) came out at 7.8%; in assay [2] (10 μM test compound) it was 26%; in assay [3] (10 μM test compound), 30%.

In the case of `COc1ccc(-c2nc3sc4c(c3c(=O)n2Cc2ccccc2)CCC(Br)C4=O)cc1` (stereo not drawn) [No. 146, 3-Benzyl-7-bromo-2-p-methoxyphenyl-6,7-dihydro-3H,5H-benzo[4,5]thieno[2,3-d]pyrimidine-4,8-dione], the inhibition at 1 µM in assay [1] (1 μM test compound) turned out to be 14.7%; in assay [2] (1 μM test compound), 7.3%; in assay [3] (1 μM test compound), 14.3%. The values for the inhibition at 10 µM in assay [1] (10 μM test compound), in assay [2] (10 μM test compound) and in assay [3] (10 μM test compound) were 37.9%, 50.9% and 5.1%, respectively.

Take `CCCCn1c(-c2cccs2)nc2sc3c(c2c1=O)CCCC3`: the inhibition at 1 µM in assay [1] (1 μM test compound) was 3.1%; in assay [2] (1 μM test compound) it was 14.9%; in assay [3] (1 μM test compound), 18.5%. For the same compound, the inhibition at 10 µM in assay [1] (10 μM test compound) worked out at 14.7%; in assay [2] (10 μM test compound), 28.6%; in assay [3] (10 μM test compound) it was 20.5%.

The values are drawn from patent US7524853B2 (Solvay Pharmaceuticals B.V., priority 2003, dated 2009).
